According to patent US11021472B2, “Use of compounds comprising two or more hydrophobic domains and a hydrophilic domain comprising PEG moieties for stabilization of a cell” (Roche Diagnostics Operations, Inc., priority 2013, dated 2021):
Values joined by “and” are separate entries in the source; they are usually repeats but may differ in a detail not shown here. Identical values can stand only once.

Legend:
CHO = experiment: Labelling (staining) of cells with labelled molecules; format: cell-based
Description: (§1) As shown in the examples, a compound for use according to the invention, wherein the compound comprises a label moiety, is contacted with a cell. As labelling is preferably done with viable or potentially viable cells, the cells are typically present in an aqueous solution, which is preferably buffered and/or contains nutrients, e.g. the cells are suspended in PBS. The labeled compound for use according to the invention may be added to the cells, e.g. in form of a solution, e.g. as aqueous solution by methods known in the art, as pipetting.

U937 = experiment: as above; format: cell-based
Description: as §1

Jurkats = experiment: as above; format: cell-based
Description: as §1

Hela = experiment: as above; format: cell-based
Description: as §1

COS 7 = experiment: as above; format: cell-based
Description: as §1

NIH 3T3 = experiment: as above; format: cell-based
Description: as §1

WBCs [1] = experiment: as above; format: cell-based
Description: as §1

Epithelial cells = experiment: as above; format: cell-based
Description: as §1

MDA-MB468 = experiment: as above; format: cell-based
Description: as §1

WBCs [2] = experiment: Recovery rate of cells after immobilization on streptavidin (SA) plate; format: cell-based; conditions: WBCs, 100 nmol/10e6 cells
Description: X=hydrophobic moiety, […]=fluorescein In the following experiment, the recovery rate of cells was determined.

WBC [3] = conditions: Example 5 B; centrifugation 10 min, 300×g
WBC [4] = experiment: WBC recovery rate after centrifugation (stabilization of cells); format: cell-based, human; conditions: Centrifugation 10 min, 300×g
Description: (§2) Centrifugation characteristics: 10 min, 300×g.
as §2
The respective left, middle and right columns per assay represent different Experimenters 1, 2 and 3. […] Centrifugation characteristics: 10 min, 300×g. Molecule: Cholesteryl-TEG-Cholesteryl-TEG-(SpacerC18)7-Fluos-Biotin-TEG.
Following molecules were tested: 1234: 5′-(Cholesteryl-TEG)2-Spacer C18-dT-Biotin-TEG-3′; 1248: 3′-(Cholesteryl-TEG)2-PEG2000-Fluos-Biotin-TEG-5′ INVERS; 1254: 3′-(Cholesteryl-TEG)2-SpacerC18-Fluos-Biotin-TEG-5′ INVERS; 1255: 3′-(Myristic acid)2-PEG2000-dT-Biotin-TEG-5′ INVERS. […] Centrifugation characteristics: 20 min, 300×g. Respective left column: 10 min incubation with molecule. Respective middle column: 1 h min incubation with molecule. Respective right column: 2 h incubation with molecule.
Following molecules were tested: 1255: 3′-(Myristic acid)2-PEG2000-dT-Biotin-TEG-5′ INVERS; 1234: 5′-(Cholesteryl-TEG)2-Spacer C18-dT-Biotin-TEG-3′; 1248: 3′-(Cholesteryl-TEG)2-PEG2000-Fluos-Biotin-TEG-5′ INVERS; 1254: 3′-(Cholesteryl-TEG)2-SpacerC18-Fluos-Biotin-TEG-5′ INVERS. […] Centrifugation characteristics: 20 min, 500×g. Respective left column: 10 min incubation with molecule. Respective middle column: 1 h min incubation with molecule. Respective right column: 3 h incubation with molecule.
Following molecules were tested: 1255: 3′-(Myristic acid)2-PEG2000-dT-Biotin-TEG-5′ INVERS; 1234: 5′-(Cholesteryl-TEG)2-Spacer C18-dT-Biotin-TEG-3′; 1248: 3′-(Cholesteryl-TEG)2-PEG2000-Fluos-Biotin-TEG-5′ INVERS; 1254: 3′-(Cholesteryl-TEG)2-SpacerC18-Fluos-Biotin-TEG-5′ INVERS. […] Centrifugation characteristics: 20 min, 1000×g. Respective left column: 10 min incubation with molecule. Respective middle column: 1 h min incubation with molecule. Respective right column: 2 h incubation with molecule.
Stabilization is typically determined on a population of cells, e.g. 2, 10, 100 or more cells, and the respective mean viability of the cell populations are compared. […] Viability may be determined by determining cell morphology, cell viability and/or cell recovery. Methods for determining cell morphology, cell viability and cell recovery are known in the art. […] For determining cell morphology, visual inspection by microscopy may be performed. For determining cell viability, a cell viability test using WST-1 proliferation kit (RAS) may be performed.

Molecule	staining of cells by labelled molecule (CHO)	staining of cells by labelled molecule (U937)	staining of cells by labelled molecule (Jurkats)	staining of cells by labelled molecule (Hela)	staining of cells by labelled molecule (COS 7)	staining of cells by labelled molecule (NIH 3T3)	staining of cells by labelled molecule (WBCs [1])	staining of cells by labelled molecule (Epithelial cells)	staining of cells by labelled molecule (MDA-MB468)	Recovery Rate (WBCs [2]; listed as Biotin-PEG-Lysin-(C18)2)	Recovery Rate (WBCs [2]; may be to due 1.5-2 h exposure of plate) [%]	time within which cell immobilization is enabled (WBC [3]) [h]	WBC recovery rate after centrifugation: dependence on molecule concentration (WBC [4])
CCCCC/C=C\C/C=C\CCCCCCCCN1C(=CC=CC2=[N+](CCCCCCCC/C=C\C/C=C\CCCCC)c3ccccc3C2(C)C)C(C)(C)c2ccccc21.[O-][Cl+3]([O-])([O-])[O-] [Linol, 1,1′-dilinoleyl-3,3,3′,3′-tetramethylindocarbocyanine perchlorate]	✓	✓	✓	✓	✓	✓	20-50 ms) ✓	✓	✓	–	–	–	–
CCCCCCCCCCCCCCCC(=O)OC[C@H](COP(=O)(O)OCCNC(=O)CCc1ccc2n1[B-](F)(F)[N+]1=C(C)C=C(C)C1=C2)OC(=O)CCCCCCCCCCCCCCC.CCN(CC)CC [Phosphatidylethanolamine, N-(4,4-difluoro-5,7-dimethyl-4-bora-3a,4a-diaza-s-indacene-3-propionyl)-1,2-dihexadecanoyl-sn-glycero-3-phosphoethanolamine, triethylammonium salt]	–	–	–	x/✓ very weak	–	–	–	–	–	–	–	–	–
5′-Cholesteryl-TEG-PEG2000-Fluos-3′ [BMO 29.891132]	–	✓	–	–	–	–	✓ not all	✓	✓	–	–	–	–
5′-CholesterylTEG-CholesterylTEG-PEG2000-Fluos-3′ [BMO 29.891133]	✓	✓	✓	✓	✓	✓	50-200 ms) ✓	✓	✓	–	–	–	–
5′-alphaTocopherolTEG-PEG2000-Fluos-3′ [BMO 29.891131]	–	✓	–	–	–	–	✓ not all	✓	✓	–	–	–	–
CCCCCCCCCCCCC/C=C/[C@@H](O)[C@H](COP(=O)([O-])OCC[N+](C)(C)C)NC(=O)CCCCc1ccc2n1[B-](F)(F)[N+]1=C(C)C=C(C)C1=C2 [Sphingomyelin, N-(4,4-difluoro-5,7-dimethyl-4-bora-3a,4a-diaza-s-indacene-3-pentanoyl)sphingosyl phosphocholine]	x very weak	–	–	✓	–	–	(x)- very bad	✓	–	–	–	–	–
CCCCCCCCCCCCCCCCCCCCCC[N+]1=C(/C=C/C=C2/N(CCCCCCCCCCCCCC)c3ccccc3C2(C)C)C(C)(C)c2ccccc21.[I-] [PKH26]	✓	✓	✓	✓*	✓	✓	not stained) ✓	✓ not all	✓	–	–	–	–
Biotin-PEG-Lys-(C18)2	–	–	–	–	–	–	–	–	–	83.9% and 75.0% and 66.0%	33.0	≤ 3.5	The higher the molecule concentration, the higher the cell recovery rate after centrifugation
CCCCCCCCCCCCCCCCCCN1C(=CC=CC2=[N+](CCCCCCCCCCCCCCCCCC)c3ccccc3C2(C)C)C(C)(C)c2ccccc21.[O-][Cl+3]([O-])([O-])[O-] [1,1′-Dioctadecyl-3,3,3′,3′-tetramethylindocarbocyanin perchlorate]	✓	✓	✓	✓	✓	✓*	✓ not all	✓	✓	–	–	–	–
